Experimental data published in patent US9545453B2, “CXCR4 inhibiting carriers for nucleic acid delivery” (Wayne State University, priority 2011, dated 2017).
“Also recorded” adds a separate entry of the source. Blank lines part the entries; values can stand above or below the molecule they belong to.

Tests used:
CXCR4+U2OS cells [1] = experiment: Matrigel cell invasion assay towards CXCL12; assay type: cell-based, Human; conditions: CXCL12-mediated invasion, 16 h
Protocol: The upper sides of the transwell inserts were coated with 40 μl Matrigel diluted in serum-free medium (v/v 1:3) per insert. The 24-well plates with coated inserts were then placed in 37° C. incubator for 2 h. CXCR4+U2OS cells were trypsinized and resuspended in different concentrations of drugs in serum-free medium for 30 min before adding to the inserts at a final concentration of 10,000 cells in 300 μl medium per insert. 20 nM CXCL12 in serum-free medium as the chemo-attractant was then added to corresponding wells in the companion plate. After 16 h, the non-invaded cells on the upper surface of the inserts were removed with a cotton swab. The invaded cells were then fixed and stained by dipping the inserts into Diff-Quick solution. The images were taken by EVOS ×1 microscope. Five 20× imaging areas were randomly selected for each insert and each sample was conducted in triplicate. Statistical significance of the observed differences in cell invasion was analyzed using non-parametric ANOVA with Dunn's multiple comparison test using GraphPad InStat (v. 3.10). P<0.05 was considered significant.
To further confirm the CXCR4 antagonism of RPA and RPA/DNA polyplexes, the anti-metastatic ability was evaluated by a Matrigel cell invasion assay. […] The DNA dose used in the experiment with the polyplexes (1 μg/mL DNA) was in the range of typical doses used in transfection experiments.

CXCR4 [2] = biological target: T1, CXCR4 (Homo sapiens, UniProt P61073); experiment: Phorbol myristate acetate-stimulated CXCR4 internalization; assay type: cell-based; conditions: 100 ng/mL phorbol myristate acetate
Excerpt: It has been reported that CXCL12 and phorbol esters trigger CXCR4 internalization through entirely different uptake pathway (Signoret, Oldridge et al. 1997).
Target sequence in this assay (P61073 whole entry): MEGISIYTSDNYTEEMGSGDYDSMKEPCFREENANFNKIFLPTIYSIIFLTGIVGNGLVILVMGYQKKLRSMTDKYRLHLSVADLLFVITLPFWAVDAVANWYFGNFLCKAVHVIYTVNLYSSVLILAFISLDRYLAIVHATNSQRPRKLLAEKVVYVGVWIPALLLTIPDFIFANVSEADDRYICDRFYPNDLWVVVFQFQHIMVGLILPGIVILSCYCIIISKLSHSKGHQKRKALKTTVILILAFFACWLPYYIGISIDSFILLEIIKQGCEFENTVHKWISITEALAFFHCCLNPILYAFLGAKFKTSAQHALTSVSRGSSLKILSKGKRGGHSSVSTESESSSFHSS

CXCR4 [3] = biological target: T1, CXCR4; experiment: CXCL12-induced intracellular calcium flux (Fluo-3); assay type: cell-based; conditions: Fluo-3 calcium indicator, CXCL12 stimulation
Excerpt: Binding of chemokine CXCL12 to its receptor CXCR4 triggers an intracellular signal transduction cascade comprising a transient increase in cytosolic free calcium.
Target sequence in this assay (P61073 whole entry, species assumed): as the sequence (P61073 whole entry) above

pDNA = experiment: DNA condensation by ethidium bromide exclusion assay; assay type: physicochemical; conditions: pH 7.4
Protocol: (§1) The ability of P(AMD-CBA) to condense pDNA was determined by ethidium bromide exclusion (EtBr) assay by measuring the changes in EtBr/pDNA fluorescence. pDNA solution at a concentration of 20 μg/mL was mixed with EtBr (1 μg/mL) and fluorescence was measured and set to 100% using an excitation wavelength of 540 nm and an emission wavelength of 590 nm. Fluorescence readings were taken following a stepwise addition of the polycation solution, and the condensation curve for each polycation was constructed.
as §1, with “P(Cyc-CBA)” for “P(AMD-CBA)”
At pH 7.4, a w/w ratio above 2 was required for RPA to fully condense the DNA, which was higher than that required in case of RHB (w/w 1) and PEI (w/w 0.5). […] The redox stability of RPA/DNA polyplexes was tested by agarose gel electrophoresis after GSH treatment.

[4] = complexes with nucleic acids
Excerpt: Ability to condense DNA is a prerequisite for successful polyplex gene delivery. FIG. 1 schematically represents this process.

[5] = Toxicity of copper complexes of P(AMD-CBA) (procedure of example 14); assay type: cell-based
Protocol: 20,000 cells were seeded per well in 96-well plates 24 hours ahead. The culturing medium was first removed and then replaced with 150 μL of medium containing increasing concentration of the polycations. After 24 hours, the incubation medium was removed and a mixture of 100 μL of fresh serum-free medium and 20 μL of MTS reagent solution was added to each well. The cells were incubated for at 37° C. in CO2 incubator for 2 hours. The absorbance at wavelength 505 nm was then measured to determine cell viability. IC50 values were calculated by Prism Graphpad Software.
Toxicity of polycations was also evaluated by MTS assay in Hep G2 cells and CXCR4+U2OS cells. […] Hep G2 cells were maintained in MEM supplemented with 10% FBS. Human epithelial osteosarcoma U2OS cells stably expressing human CXCR4 receptor fused to the N-terminus of enhanced green fluorescent protein were purchased form Fisher Scientific. The cells were cultured in DMEM supplemented with 2 mM L-Glutamine, 10% FBS, 1% Pen-Strep and 0.5 mg/ml G418. The cells were plated into 96-well microtiter plates at a density of 20,000 cells/well. […] After 2 h incubation, the absorbance was measured spectrophotometrically in Synergy 2 Microplate Reader (BioTek, VT) at a wavelength of 490 nm. The relative cell viability (%) was calculated as [A]sample/[A]untreated×100%.

CXCR4+U2OS cells [6] = experiment: Luciferase transfection in CXCR4+U2OS cells; assay type: cell-based, Human; conditions: 100 ng/mL, serum-free medium, 4 h

Inhibition of phorbol-stimulated CXCR4 internalization (CXCR4 [2]): do not inhibit
Decrease in EtBr fluorescence (pDNA): about 30%
SMILES: c1cc(CN2CCCNCCNCCCNCC2)ccc1CN1CCCNCCNCCCNCC1 [AMD3100, 1,1′-[1,4-Phenylenebis(methylene)]bis[1,4,8,11-tetraazacyclotetradecane]]
Blocked invasion (% of cells) (CXCR4+U2OS cells [1]): 75%
Effect on CXCL12-induced calcium signaling (CXCR4-mediated) (CXCR4 [3]): strong antagonistic effect; also recorded: CXCL12 antagonists
Transfection level [4]: only background levels of transfection

SMILES: [Cl][Cu][Cl] [CuCl2]
Toxicity with increasing copper content [5]: No toxicity

SMILES: CCCCCCCCCCCCCC(=O)O[C@@H]1[C@@H](C)[C@@]2(O)[C@@H](C=C(CO)C[C@]3(O)C(=O)C(C)=C[C@@H]23)[C@@H]2C(C)(C)[C@]12OC(C)=O [PMA, phorbol 12-myristate 13-acetate]
Cytotoxicity under the transfection conditions (CXCR4+U2OS cells [6]): No cytotoxicity
